Laboratory results taken from patent US20250333389A1, “PHARMACEUTICAL FOR THE INHIBITION OF CELLULAR PROTON PUMPS” (AquaRemedi Pharmaceuticals INC, priority 2024, published 2025).
“Also recorded” adds a separate entry of the source. Read-outs that look alike come from different tables or passages of the source.

Legend:
human Hv1 channel [1] = biological target: T1, human Hv1 channel (Homo sapiens, UniProt Q96D96); experiment: Whole cell patch clamp recording of Hv1 proton currents in transfected HEK293T cells; type: cell-based; conditions: for V1/2 shift of G-V curve: Boltzmann fit; for pore blocker strength for Hv1 channel (in words): conclusion from patch clamp data
T1 construct: expressed in transfected cells; host or cells: HEK293T
T1 sequence (Q96D96 1-273): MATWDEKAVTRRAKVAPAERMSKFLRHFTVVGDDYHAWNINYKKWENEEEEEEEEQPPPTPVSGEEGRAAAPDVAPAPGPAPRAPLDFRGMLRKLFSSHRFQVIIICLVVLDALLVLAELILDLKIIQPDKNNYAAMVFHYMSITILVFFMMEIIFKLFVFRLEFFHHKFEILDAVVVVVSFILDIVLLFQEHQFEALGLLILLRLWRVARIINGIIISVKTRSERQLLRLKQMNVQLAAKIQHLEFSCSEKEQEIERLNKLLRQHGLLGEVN
Text: For conducting experiments, we used HEK293T cells. The HEK293T cells were purchased from American Type Culture Collection (ATCC). For cell culture, the HEK293T cells were maintained in ATTC's Dulbecco's Modified Eagle's Medium (DMEM) supplemented with a 10% fetal bovine serum (FBS 10%) and 1% penicillin and streptomycin. Plasmids were transfected into cells using a transfection reagent, Lipofectamine™ 2000 according to the manufacturer's instructions (Life Technologies). Experiments were performed 24-48 hours post-transfection.
For the experimental studies, similar techniques as utilized by Zhao et. al is used in this invention. (Zhao et al., Role of human Hv1 channels in sperm capacitation and white blood cell respiratory burst established by a designed peptide inhibitor, Proc Natl Acad Sci USA. 2018, PMID: 30478045, PMCID: PMC6294887).
In the present invention, a Whole Cell patch clamp technique was utilized to study the Hv1 proton currents. The proton currents passed by Hv1 were recorded in Whole Cell mode using an Axon™ Axopatch™ 200B microelectrode amplifier. Stimulation and data collection were performed by a high-resolution, low-noise digitizer, Digidata 1322A, manufactured by Axon Instruments, Inc.) and Axon™ pCLAMP™ 10 Electrophysiology Data Acquisition & Analysis Software (released by Molecular Devices). Cells were perfused with an external bath solution comprised of a zwitterionic sulfonic acid buffering agent (100 mM HEPES), 100 mM NaCl, and 10 mM glucose at pH 7.5. During the patch clamp recording, the patch pipettes with a resistance between 3 and 5 MΩ were filled with 100 mM Bis-Tris buffer, 100 mM NaCl, and 10 mM glucose at pH 6.0. The sampling frequency was 10 kHz and the signals were filtered at 1 KHz.
Fractional unblocked current was assessed at the end of the test pulse.
Dose-response curves (the time course for block and unblock of Hv1 as shown in FIG. 9) show the fractional unblocked current, Icompound/Icontrol, versus toxin concentration. The curves were fit to the Hill equation, Fun=(1+([compound]/Ki)h)−1), wherein the [compound] is the effective compound concentration, Fun is the fraction of unblocked current at equilibrium. Ki is the inhibition constant and h is the Hill coefficient.

human Hv1 channel [2] = biological target: T1, human Hv1 channel; experiment: as above; type: cell-based; conditions: calculated as Ki=Koff/Kon, read-out: inhibition constant Ki for Hv1 channels
[3] = 100 nM compound, at −20 mV, holding −60 mV

Compound | V1/2 shift of G-V curve (human Hv1 channel [1]; 10 μM compound, shift to the left) | block of Hv1 current (human Hv1 channel [1]; 10 μM compound, at −20 mV, holding −60 mV) | pore blocker strength for Hv1 channel (in words) (human Hv1 channel [1]) | Ki (human Hv1 channel [2]) | time course of block (washin) (human Hv1 channel [1]; 100 nM applied to Hv1 channels) | V1/2 shift of G-V curve (human Hv1 channel [1]; 100 nM compound) | block of Hv1 channel current (human Hv1 channel [1]; [3]) | time course of unblock (washout) (human Hv1 channel [1]; washed away with isotonic saline) | Ki (human Hv1 channel [2]; I-V plot, −20 mV)
C=C[C@@H]1CS[C@H](c2ccccc2)N1C(=O)OC(C)(C)C [Original Compound, (2R,4R)-tert-butyl 2Phenyl-4-vinylthiazolidine-3-carboxylate] | ~15 mV | 20% | weak pore blocker | 3000 nM | – | – | – | – | –
CC(C)(C)OC(=O)N1[C@H](CO)CS[C@@H]1c1ccccc1 [S1, (2R,4R)-tert-butyl 4-(hydroxymethyl)-2-Phenylthiazolidine-3-carboxylate] | – | – | strong nano-molar pore blocker; also recorded: relatively strong pore blocker | – | blocks the channel current immediately | about 41 mV | 92% | the current resumes | 3 nM
O=C(O)[C@@H]1CS[C@H](c2ccccc2)N1 [S2, (2R,4R)-2-phenylthiazolidine-4-carboxylic acid] | – | – | strong nano-molar pore blocker | – | – | about 35 mV | 85% | – | 20 nM
